The values that follow come from patent US9067888B2, “Inhibitors of protein kinases” (Ingenium Pharmaceuticals GmbH, priority 2010, dated 2015).

One test concerns the target CDK6/CycD3 (Homo sapiens (Human), UniProt Q00534). As to the kind of experiment: Kinase activity assay IC50 profile. In kind it is biochemical. The following applies: read-out: IC50 CDK6/D3.
The target of the next test is CDK9 (Homo sapiens (Human), UniProt P50750). As to the kind of experiment: In vitro kinase inhibition, KinaseProfiler service of Millipore, residual activity. In kind it is biochemical. The source says:
(§1) In vitro kinase assay analysis may be performed using standard techniques described in the art. These techniques are also used by commercial services providers in order to offer in vitro kinase activity assay services, e.g. the assays offered by Millipore Inc. (worldwide website www(dot)millipore.com), ProQinase GmbH (worldwide website www(dot)proqinase.de) and others.
In vitro kinase inhibition results shown in columns 7 to 9 in Table 1 were obtained by employing the KinaseProfiler™ service of Millipore and used to select compounds displaying specificity for CDK9. Specifically, it was intended to distinguish the CDK9-specific compounds from other compounds having significant inhibitory potency also with regard to other CDKs.

Another test addresses CDK3/CycE (Homo sapiens (Human), UniProt Q00526). The test can be described thus: Kinase activity assay IC50 profile. It counts as biochemical. To be noted: read-out: IC50 CDK3/E. On the procedure:
as §1
(§2) On the day of the kinase inhibition assay, 451 μl H2O were added to each well of a set of compound dilution plates. To minimize precipitation, the H2O was added to the plates only a few minutes before the transfer of the compound solutions into the assay plates. The plates were shaken thoroughly, resulting in “compound dilution plates/10%/DMSO” with a concentration of 1×10^−03 M/10% DMSO to 3×10^−08 M/10% DMSO in semilog steps. These plates were used for the transfer of 5 μl compound solution into the “assay plates”. The compound dilution plates were discarded at the end of the working day. For the assays (see below), 5 μl solution from each well of the compound dilution plates were transferred into the assay plates. The final volume of the assay was 50 μl. […]
(§3) The median value of the counts in column 1 (n=8) of each assay plate was defined as “low control”. This value reflects unspecific binding of radioactivity to the plate in the absence of a protein kinase but in the presence of the substrate. […]

The next test concerns the target CDK1/CycB (Homo sapiens (Human), UniProt P06493). The test can be described thus: Kinase activity assay IC50 profile. In kind it is biochemical. The following applies: read-out: IC50 CDK1/B. The procedure:
as §1, §2, §3

In another test the target is CDK5/p35NCK (Homo sapiens (Human), UniProt Q00535). As to the kind of experiment: Kinase activity assay IC50 profile. It counts as biochemical. The following applies: read-out: IC50 CDK5/p35. The procedure: as §1, §2, §3
Sequence of CDK5/p35NCK (Q00535 whole entry): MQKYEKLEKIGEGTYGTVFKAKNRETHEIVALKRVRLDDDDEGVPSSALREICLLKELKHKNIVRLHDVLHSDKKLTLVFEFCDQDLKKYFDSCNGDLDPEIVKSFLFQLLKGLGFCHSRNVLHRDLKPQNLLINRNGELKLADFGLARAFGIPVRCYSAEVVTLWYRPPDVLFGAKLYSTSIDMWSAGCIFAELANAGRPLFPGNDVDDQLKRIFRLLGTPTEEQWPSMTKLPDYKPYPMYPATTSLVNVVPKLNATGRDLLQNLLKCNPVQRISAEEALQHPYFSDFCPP
Sequence of CDK5/p35NCK (Q15078 whole entry partner): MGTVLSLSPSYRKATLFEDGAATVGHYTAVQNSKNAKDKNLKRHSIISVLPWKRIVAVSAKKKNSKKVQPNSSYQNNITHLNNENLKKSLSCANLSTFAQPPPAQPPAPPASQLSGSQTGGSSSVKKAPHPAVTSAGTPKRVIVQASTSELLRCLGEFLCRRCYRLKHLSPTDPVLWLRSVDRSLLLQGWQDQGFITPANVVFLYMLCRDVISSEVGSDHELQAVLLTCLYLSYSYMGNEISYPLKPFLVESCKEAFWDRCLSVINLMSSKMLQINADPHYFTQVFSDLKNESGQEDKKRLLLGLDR
The target of the next test is CDK2/CycA (Homo sapiens (Human), UniProt P24941). As to the kind of experiment: Kinase activity assay IC50 profile. In kind it is biochemical. The procedure:
as §1, §2, §3

For a further test, the target named is GSK3-alpha (Homo sapiens (Human), UniProt P49840). The test can be described thus: Kinase activity assay IC50 profile. In kind it is biochemical. To be noted: read-out: IC50 GSK3a. On the procedure:
as §1
(§4) On the day of the kinase inhibition assay, 451 μl H2O were added to each well of a set of compound dilution plates. To minimize precipitation, the H2O was added to the plates only a few minutes before the transfer of the compound solutions into the assay plates. The plates were shaken thoroughly, resulting in “compound dilution plates/10%/DMSO” with a concentration of 1×10^−03 M/10% DMSO to 3×10^−08 M/10% DMSO in semilog steps. These plates were used for the transfer of 5 μl compound solution into the “assay plates”. The compound dilution plates were discarded at the end of the working day. For the assays (see below), 5 μl solution from each well of the compound dilution plates were transferred into the assay plates. The final volume of the assay was 50 μl. All compounds were tested at 10 final assay concentrations in the range from 1×10^−04 M to 3×10^−09 M. The final DMSO concentration in the reaction mixtures was 1% in all cases.
(§5) All kinase assays were performed in 96-well FlashPlates™ from Perkin Elmer/NEN (Boston, Mass., USA) in a 50 μl reaction volume. The reaction mixture was pipetted in four steps in the following order: • 20 μl of assay buffer (standard buffer) • 5 μl of ATP solution (in H2O) • 5 μl of test compound (in 10% DMSO) • 10 μl of substrate/10 μl of enzyme solution (premixed)
(§6) The assay for all enzymes contained 60 mM HEPES-NaOH (pH 7.5), 3 mM MgCl2, 3 mM MnCl2, 3 μM Na-Orthovanadate, 1.2 mM DTT, 50 μg/ml PEG2000, 1 μM [^33P]-ATP (approx. 5 ×1005 cpm per well).
(§7) Reaction mixtures were incubated at 30° C. for 80 min. The reaction was stopped with 50 μl of 2% (v/v) H3PO4, plates were aspirated and washed two times with 200 μl H2O or 200 μl 0.9% (w/v) NaCl. Incorporation of ^33P was determined with a microplate scintillation counter (Microbeta, Wallac).
(§8) The median value of the counts in column 1 (n=8) of each assay plate was defined as “low control”. This value reflects unspecific binding of radioactivity to the plate in the absence of a protein kinase but in the presence of the substrate. […] The residual activity (in %) for each well of a particular plate was calculated by using the following formula: Res. Activity(%)=100×[(cpm of compound−low control)/(high control−low control)]
(§9) The residual activities for each concentration and the compound IC50 values were calculated using Quattro Workflow V2.0.1.3 (Quattro Research GmbH, Munich, Germany; worldwide website www(dot)quattro-research.com). […]

In the next test the target is CDK7/CycH/MAT1 (Homo sapiens (Human), UniProt P50613). The test can be described thus: Kinase activity assay IC50 profile. It counts as biochemical. The following applies: read-out: IC50 CDK7/H/MAT1. On the procedure: as §1, §4, §5, §6, §7, §8, §9
The target in a further test is GSK3-beta (Homo sapiens (Human), UniProt P49841). As to the kind of experiment: Kinase activity assay IC50 profile. To be noted: read-out: IC50 GSK3b. It counts as biochemical. On the procedure: as §1, §4, §5, §6, §7, §8, §9
Sequence of GSK3-beta (P49841 whole entry): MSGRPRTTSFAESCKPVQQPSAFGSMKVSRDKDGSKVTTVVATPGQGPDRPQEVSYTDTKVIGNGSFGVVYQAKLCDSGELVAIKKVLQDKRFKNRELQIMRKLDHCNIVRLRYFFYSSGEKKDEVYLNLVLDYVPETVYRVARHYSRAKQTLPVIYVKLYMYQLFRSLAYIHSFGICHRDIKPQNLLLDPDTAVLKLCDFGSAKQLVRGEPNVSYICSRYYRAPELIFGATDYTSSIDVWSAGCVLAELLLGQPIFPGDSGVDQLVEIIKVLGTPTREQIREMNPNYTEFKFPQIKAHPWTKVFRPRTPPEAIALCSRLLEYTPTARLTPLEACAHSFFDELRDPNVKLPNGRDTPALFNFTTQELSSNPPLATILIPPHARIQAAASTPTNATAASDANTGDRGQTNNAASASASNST
Another test addresses IRAK1 (Homo sapiens (Human), UniProt P51617). The test can be described thus: Kinase activity assay IC50 profile. In kind it is biochemical. The procedure: as §1, §4, §5, §6, §7, §8, §9
For test [1], the system named is TNF-alpha inducible reporter gene. The test can be described thus: Inhibition of TNF-alpha-induced reporter gene expression (luciferase) in HeLa-derived cell line. In kind it is cell-based, human. To be noted: Homo sapiens, 6 h, remaining luciferase activity in presence of 3 μM of compound as ratio of DMSO-treated cells, TNF-alpha 50 ng/ml, read-out: Efficacy (ratio to DMSO) TNF-alpha induced response. The source says:
TNF-alpha responsive cell lines like the human HeLa cell line can be used to study cellular responses to TNF-alpha, e.g. transcriptional regulation of a transfected TNF-alpha responsive reporter gene, and effects of kinase inhibitors on this response.
In order to analyse compound effects on TNF-alpha mediated transcriptional response, a HeLa-derived cell line stably transfected with a TNF-alpha inducible reporter gene was used (Panomics Catalog No. RC0013). The cell line was obtained by co-transfection of a luciferase reporter gene (Panomics P/N LR0051) and pHyg into human cervical epithelial HeLa cells, followed by hygromycin selection. TNFα-induced luciferase activity was used to select clones from the hygromycin-resistant cells. The cell line was maintained and stimulated according to the manufacturer's instructions. Briefly, cells were seeded at 5×10^5/well in 1 ml of growth medium in a 12-well plate and incubated in a humidified incubator at 37° C. and 5% CO2 for 24 hours. Medium was replaced with 1 ml of serum free medium and compounds were added up to concentrations of […]. After 1 hour of incubation, TNF-alpha was added to achieve a final concentration of 50 ng/ml. The culture dish was further incubated in a humidified incubator at 37° C. and 5% CO2 for 6 hours, medium was removed and 100 μL of lysis buffer were added to each well and the assay for luciferase activity was performed according to assay manufacturer's (Promega P/N E1500) recommendations. For more information about this cell line, go to worldwide website www(dot)panomics.com.
Compound effects on TNF-alpha-induced reporter gene expression is shown in column 6 in Table 1 given below. Indicated is the remaining luciferase activity after incubation in presence of 3 μM of compound as a ratio of the activity of DMSO-treated cells without compound. Specifically, it was intended to distinguish cell permeable compounds from other compounds having significant inhibitory potency with regard to other CDKs, but fail to penetrate cells or are unstable under the conditions of the experiment.

Sequence of CDK9 (P50750 whole entry): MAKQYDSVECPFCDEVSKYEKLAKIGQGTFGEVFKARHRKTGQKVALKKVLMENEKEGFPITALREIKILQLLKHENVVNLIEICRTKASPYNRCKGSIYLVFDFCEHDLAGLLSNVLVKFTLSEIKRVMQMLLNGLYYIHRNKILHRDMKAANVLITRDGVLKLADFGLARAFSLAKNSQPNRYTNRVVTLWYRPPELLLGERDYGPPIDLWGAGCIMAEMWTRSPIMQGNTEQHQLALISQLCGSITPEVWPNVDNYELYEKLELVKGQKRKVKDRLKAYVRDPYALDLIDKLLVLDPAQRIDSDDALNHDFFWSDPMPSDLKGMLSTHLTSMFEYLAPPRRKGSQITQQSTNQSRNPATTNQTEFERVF
Sequence of CDK9 (O60563 whole entry partner): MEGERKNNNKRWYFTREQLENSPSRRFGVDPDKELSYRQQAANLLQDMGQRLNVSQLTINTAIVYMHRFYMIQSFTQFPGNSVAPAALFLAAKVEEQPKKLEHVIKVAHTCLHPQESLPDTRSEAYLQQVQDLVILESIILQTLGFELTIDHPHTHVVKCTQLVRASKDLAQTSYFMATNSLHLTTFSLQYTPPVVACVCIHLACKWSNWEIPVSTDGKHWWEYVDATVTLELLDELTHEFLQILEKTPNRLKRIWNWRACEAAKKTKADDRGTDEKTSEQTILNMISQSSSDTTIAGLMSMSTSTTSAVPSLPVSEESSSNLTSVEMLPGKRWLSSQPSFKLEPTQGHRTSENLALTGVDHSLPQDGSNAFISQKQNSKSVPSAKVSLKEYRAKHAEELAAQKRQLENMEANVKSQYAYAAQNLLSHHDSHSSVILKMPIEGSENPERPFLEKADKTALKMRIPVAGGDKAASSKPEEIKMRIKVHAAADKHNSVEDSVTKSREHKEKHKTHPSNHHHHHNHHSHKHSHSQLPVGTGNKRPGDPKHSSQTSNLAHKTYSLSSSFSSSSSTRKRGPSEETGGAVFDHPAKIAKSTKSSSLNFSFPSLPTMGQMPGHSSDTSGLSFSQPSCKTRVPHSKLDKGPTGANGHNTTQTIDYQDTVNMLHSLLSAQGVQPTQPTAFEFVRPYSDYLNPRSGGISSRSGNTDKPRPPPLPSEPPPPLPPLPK
Sequence of CDK3/CycE (Q00526 whole entry): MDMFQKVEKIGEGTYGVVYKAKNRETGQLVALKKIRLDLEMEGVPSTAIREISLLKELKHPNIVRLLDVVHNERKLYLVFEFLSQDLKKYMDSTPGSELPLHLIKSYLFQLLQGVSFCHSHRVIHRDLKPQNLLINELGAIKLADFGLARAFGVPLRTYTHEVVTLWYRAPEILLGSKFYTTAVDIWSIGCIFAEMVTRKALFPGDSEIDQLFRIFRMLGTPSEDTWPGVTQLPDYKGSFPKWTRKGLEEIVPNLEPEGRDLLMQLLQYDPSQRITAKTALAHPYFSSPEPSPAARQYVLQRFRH
Sequence of CDK3/CycE (P24864 whole entry partner): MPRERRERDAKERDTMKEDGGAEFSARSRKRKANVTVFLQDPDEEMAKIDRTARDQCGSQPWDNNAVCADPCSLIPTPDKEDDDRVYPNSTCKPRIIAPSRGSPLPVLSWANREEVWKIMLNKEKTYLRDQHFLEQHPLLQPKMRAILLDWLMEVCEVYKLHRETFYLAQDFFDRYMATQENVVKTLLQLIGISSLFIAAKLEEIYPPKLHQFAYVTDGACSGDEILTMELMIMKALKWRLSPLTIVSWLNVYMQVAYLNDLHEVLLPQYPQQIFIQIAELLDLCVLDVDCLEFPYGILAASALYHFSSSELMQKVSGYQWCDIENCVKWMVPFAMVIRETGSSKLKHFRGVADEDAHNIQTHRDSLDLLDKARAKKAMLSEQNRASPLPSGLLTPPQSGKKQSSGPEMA
Sequence of CDK1/CycB (P06493 whole entry): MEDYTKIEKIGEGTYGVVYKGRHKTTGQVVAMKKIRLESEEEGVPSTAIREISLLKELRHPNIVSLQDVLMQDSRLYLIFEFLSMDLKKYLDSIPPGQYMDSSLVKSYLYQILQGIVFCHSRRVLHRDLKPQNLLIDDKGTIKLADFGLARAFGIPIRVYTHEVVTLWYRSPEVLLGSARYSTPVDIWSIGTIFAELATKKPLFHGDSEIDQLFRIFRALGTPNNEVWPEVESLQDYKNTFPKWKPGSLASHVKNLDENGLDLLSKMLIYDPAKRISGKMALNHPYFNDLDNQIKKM
Sequence of CDK1/CycB (P14635 whole entry partner): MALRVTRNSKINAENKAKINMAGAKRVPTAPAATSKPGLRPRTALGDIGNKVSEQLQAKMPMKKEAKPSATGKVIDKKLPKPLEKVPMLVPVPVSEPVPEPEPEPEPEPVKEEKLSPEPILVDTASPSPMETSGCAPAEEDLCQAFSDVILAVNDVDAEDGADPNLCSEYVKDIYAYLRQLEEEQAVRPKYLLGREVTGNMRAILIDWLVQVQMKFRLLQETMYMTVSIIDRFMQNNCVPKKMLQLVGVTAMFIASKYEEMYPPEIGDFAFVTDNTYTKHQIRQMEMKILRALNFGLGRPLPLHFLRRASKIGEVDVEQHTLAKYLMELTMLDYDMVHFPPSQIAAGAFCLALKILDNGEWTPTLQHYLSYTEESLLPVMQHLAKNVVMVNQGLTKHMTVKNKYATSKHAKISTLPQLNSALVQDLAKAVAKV
Sequence of IRAK1 (P51617 whole entry): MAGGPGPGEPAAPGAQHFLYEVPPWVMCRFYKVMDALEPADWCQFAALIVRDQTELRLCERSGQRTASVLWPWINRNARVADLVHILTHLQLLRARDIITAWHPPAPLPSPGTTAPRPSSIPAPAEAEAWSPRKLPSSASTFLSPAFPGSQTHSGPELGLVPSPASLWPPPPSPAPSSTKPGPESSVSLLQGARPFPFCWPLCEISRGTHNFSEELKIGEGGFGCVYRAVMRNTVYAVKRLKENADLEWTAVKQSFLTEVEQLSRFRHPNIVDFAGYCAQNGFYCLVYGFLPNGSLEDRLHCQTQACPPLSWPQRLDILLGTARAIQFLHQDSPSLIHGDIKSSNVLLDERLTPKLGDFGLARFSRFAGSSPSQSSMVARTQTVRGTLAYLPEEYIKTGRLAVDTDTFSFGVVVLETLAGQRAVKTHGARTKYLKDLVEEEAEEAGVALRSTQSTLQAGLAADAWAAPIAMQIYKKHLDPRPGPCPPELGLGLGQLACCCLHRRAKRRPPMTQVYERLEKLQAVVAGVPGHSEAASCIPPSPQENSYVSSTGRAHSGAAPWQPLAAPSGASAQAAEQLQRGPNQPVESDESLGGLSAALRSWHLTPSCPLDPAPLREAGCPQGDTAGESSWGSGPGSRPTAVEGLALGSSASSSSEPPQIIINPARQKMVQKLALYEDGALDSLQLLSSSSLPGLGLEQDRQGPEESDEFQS
Sequence of CDK6/CycD3 (Q00534 whole entry): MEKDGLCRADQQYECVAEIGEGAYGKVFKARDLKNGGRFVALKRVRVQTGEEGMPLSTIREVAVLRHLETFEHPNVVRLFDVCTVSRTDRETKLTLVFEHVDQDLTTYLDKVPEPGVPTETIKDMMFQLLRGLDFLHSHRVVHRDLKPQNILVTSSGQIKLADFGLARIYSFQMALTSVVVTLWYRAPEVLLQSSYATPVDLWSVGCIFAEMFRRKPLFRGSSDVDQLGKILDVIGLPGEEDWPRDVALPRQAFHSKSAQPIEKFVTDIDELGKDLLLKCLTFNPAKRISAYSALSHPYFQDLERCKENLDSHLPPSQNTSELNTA
Sequence of CDK6/CycD3 (P30281 whole entry partner): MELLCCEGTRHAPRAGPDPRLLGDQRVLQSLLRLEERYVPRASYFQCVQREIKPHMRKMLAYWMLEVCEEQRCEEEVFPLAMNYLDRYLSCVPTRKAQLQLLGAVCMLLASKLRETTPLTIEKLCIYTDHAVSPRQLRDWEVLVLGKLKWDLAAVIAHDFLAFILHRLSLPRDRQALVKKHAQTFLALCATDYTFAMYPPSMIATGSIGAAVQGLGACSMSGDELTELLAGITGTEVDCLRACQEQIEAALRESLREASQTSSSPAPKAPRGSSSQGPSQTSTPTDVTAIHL

Regarding `COc1cc(F)ccc1-c1ccnc(NC(=O)[C@H]2CCC[C@@H](NC(C)=O)C2)c1` (relative stereo) [Example 33, cis-3-Acetamido-N-(4-(4-fluoro-2-methoxyphenyl)pyridin-2-yl)cyclo-hexanecarboxamide], the IC50 at CDK6/CycD3 is above 5000 nM; on CDK3/CycE, 219 nM; on CDK1/CycB, 94 nM; on CDK5/p35NCK, 1080 nM; on CDK2/CycA it was 168 nM; on GSK3-alpha, 160 nM. For the same compound, the IC50 at CDK7/CycH/MAT1 was above 5000 nM; on GSK3-beta, 903 nM; at IRAK1, above 5000 nM. The remaining activity at 0.01 µM at CDK9 (residual activity at 10 nM compound, read-out: CDK9 10 nM (RA in %)) stood at 29%. Further, at CDK9 (residual activity at 100 nM compound, read-out: CDK9 100 nM (RA in %)), the remaining activity at 0.1 µM stood at 3%. Moreover, in test [1], the activity at 3 µM was determined as 3%.
